In patent publication US20140155376A1, “PYRROLOPYRAZINE KINASE INHIBITORS” (Hoffmann-La Roche Inc., priority 2010, published 2014):

Target: T1, JAK3 (recombinant human kinase domain; h-jak3(810-1124)) (Homo sapiens, UniProt P52333)
T1 construct: h-jak3(810- 1124)-sf9-c; made in house; host or cells: Sf9 insect cells
Experiment: Determination of IC50 of Janus Kinase (JAK) inhibition: JAK3, radioactive end-point assay with 33P-ATP
Format: biochemical
Details: JAK3 kinase domain; ATP 1.5 uM, peptide 50 uM, 20 minutes, room temperature, 10% DMSO; read-out: Ic50 h-jak3(810-1124)-sf9-c:no additive

T1 sequence (P52333 810-1124): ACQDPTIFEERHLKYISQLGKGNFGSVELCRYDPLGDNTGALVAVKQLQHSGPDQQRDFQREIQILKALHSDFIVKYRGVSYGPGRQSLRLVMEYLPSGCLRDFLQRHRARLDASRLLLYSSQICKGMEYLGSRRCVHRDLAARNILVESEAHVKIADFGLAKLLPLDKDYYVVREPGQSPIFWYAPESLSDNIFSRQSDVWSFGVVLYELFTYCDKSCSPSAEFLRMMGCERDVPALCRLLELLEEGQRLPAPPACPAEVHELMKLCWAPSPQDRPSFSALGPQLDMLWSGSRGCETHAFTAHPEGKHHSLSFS

IC50 | SMILES
0.00024 µM | Cc1cc(-c2cnc3[nH]cc(C(=O)N[C@@H](C)C(C)(C)C)c3n2)sc1C(=O)NC1CCOCC1 [Example I-219, 2-[4-Methyl-5-(tetrahydro-pyran-4-ylcarbamoyl)-thiophen-2-yl]-5H-pyrrolo[2,3-b]pyrazine-7-carboxylic acid ((S)-1,2,2-trimethyl-propyl)-amide]
0.05 µM | C[C@@H](NC(=O)c1c[nH]c2ncc(C3CC3)nc12)c1ccccc1 [Example I-66, 2-Cyclopropyl-5H-pyrrolo[2,3-b]pyrazine-7-carboxylic acid ((R)-1-phenyl-ethyl)-amide]
0.228 µM | C[C@H]1C[C@H]1c1cnc2[nH]cc(C(=O)NCC(C)(C)CO)c2n1 [Example I-46, 2-((1R,2S)-2-Methyl-cyclopropyl)-5H-pyrrolo[2,3-b]pyrazine-7-carboxylic acid (3-hydroxy-2,2-dimethyl-propyl)-amide]
0.427 µM | C[C@H](NC(=O)c1c[nH]c2ncc(C3CC3)nc12)c1ccccc1 [Example I-67, 2-Cyclopropyl-5H-pyrrolo[2,3-b]pyrazine-7-carboxylic acid ((S)-1-phenyl-ethyl)-amide]
0.283 µM | CC(=O)N1CCCC(CNC(=O)c2c[nH]c3ncc(C4CC4)nc23)C1 (centres unmarked) [Example I-136, 2-Cyclopropyl-5H-pyrrolo[2,3-b]pyrazine-7-carboxylic acid (1-acetyl-piperidin-3-ylmethyl)-amide]
0.012 µM | C[C@H](NC(=O)c1c[nH]c2ncc(C3CC3)nc12)C1(C#N)CCCC1 [Example I-101, 2-Cyclopropyl-5H-pyrrolo[2,3-b]pyrazine-7-carboxylic acid [(S)-1-(1-cyano-cyclopentyl)-ethyl]-amide]
0.0917 µM | CNC(=O)N[C@@H]1CCc2ccc(Oc3cnc4[nH]cc(C(=O)NC(C)C)c4n3)cc21 [Example I-292, 2-[(R)-3-(3-Methyl-ureido)-indan-5-yloxy]-5H-pyrrolo[2,3-b]pyrazine-7-carboxylic acid isopropylamide]
0.533 µM | CC(C)NC(=O)c1c[nH]c2ncc(Oc3ccc4c(c3)[C@@H](N)CC4)nc12 [Example I-289, 2-((S)-3-Amino-indan-5-yloxy)-5H-pyrrolo[2,3-b]pyrazine-7-carboxylic acid isopropylamide]
0.0059 µM | CC[C@H](C)NC(=O)c1c[nH]c2ncc(C3CC3)nc12 [Example I-22, 2-Cyclopropyl-5H-pyrrolo[2,3-b]pyrazine-7-carboxylic acid ((S)-sec-butyl)-amide]
0.00032 µM | CC(Cn1cccn1)NC(=O)c1ccc(-c2cnc3[nH]cc(C(=O)N[C@@H](C)C(C)(C)C)c3n2)s1 (stereo partly drawn) [Example I-158, 2-[5-(1-Methyl-2-pyrazol-1-yl-ethylcarbamoyl)-thiophen-2-yl]-5H-pyrrolo[2,3-b]pyrazine-7-carboxylic acid ((S)-1,2,2-trimethyl-propyl)-amide]
5.36 µM | CC(C)NC(=O)c1c[nH]c2ncc(Oc3ccccc3Cc3ccccc3)nc12 [Example I-237, 2-(2-Benzyl-phenoxy)-5H-pyrrolo[2,3-b]pyrazine-7-carboxylic acid isopropylamide]
4.22 µM | CC(C)NC(=O)c1c[nH]c2ncc(Oc3cccc(C(C)(C)C)c3)nc12 [Example I-231, 2-(3-tert-Butyl-phenoxy)-5H-pyrrolo[2,3-b]pyrazine-7-carboxylic acid isopropylamide]
0.00041 µM | C[C@H](NC(=O)c1c[nH]c2ncc(-c3ccc(C(=O)NCc4c(F)cccc4F)s3)nc12)C(C)(C)C [Example I-188, 2-[5-(2,6-Difluoro-benzylcarbamoyl)-thiophen-2-yl]-5H-pyrrolo[2,3-b]pyrazine-7-carboxylic acid ((S)-1,2,2-trimethyl-propyl)-amide]
0.491 µM | Cc1cccc(Oc2cnc3[nH]cc(C(=O)NC(C)C)c3n2)n1 [Example I-278, 2-(6-Methyl-pyridin-2-yloxy)-5H-pyrrolo[2,3-b]pyrazine-7-carboxylic acid isopropylamide]
2.96 µM | CC(C)NC(=O)c1c[nH]c2ncc(Oc3ccccc3C(F)(F)F)nc12 [Example I-236, 2-(2-Trifluoromethyl-phenoxy)-5H-pyrrolo[2,3-b]pyrazine-7-carboxylic acid isopropylamide]
0.0387 µM | C[C@@H](NC(=O)c1c[nH]c2ncc(C3CC3)nc12)[C@](C)(O)CC#N [Example I-91, 2-Cyclopropyl-5H-pyrrolo[2,3-b]pyrazine-7-carboxylic acid ((1R,2R)-3-cyano-2-hydroxy-1,2-dimethyl-propyl)-amide]
0.0567 µM | CC(C)NC(=O)c1c[nH]c2ncc(Oc3ccc4c(c3)[C@H](NC(=O)C3CCOCC3)CC4)nc12 [Example I-283, 2-{(R)-3-[(Tetrahydro-pyran-4-carbonyl)-amino]-indan-5-yloxy}-5H-pyrrolo[2,3-b]pyrazine-7-carboxylic acid isopropylamide]
0.0004 µM | COc1ccccc1CNC(=O)c1ccc(-c2cnc3[nH]cc(C(=O)N[C@@H](C)C(C)(C)C)c3n2)s1 [Example I-203, 2-[5-(2-Methoxy-benzylcarbamoyl)-thiophen-2-yl]-5H-pyrrolo[2,3-b]pyrazine-7-carboxylic acid ((S)-1,2,2-trimethyl-propyl)-amide]

IC50 | SMILES
0.00501 µM | CCn1cc(-c2cnc3[nH]cc(C(=O)N[C@@H](C)C4(O)CCCC4)c3n2)cn1 [Example I-138, 2-(1-Ethyl-1H-pyrazol-4-yl)-5H-pyrrolo[2,3-b]pyrazine-7-carboxylic acid [(S)-1-(1-hydroxy-cyclopentyl)-ethyl]-amide]
0.0951 µM | CC(C)(C(=O)O)C(NC(=O)c1c[nH]c2ncc(C3CC3)nc12)C1CC1 (centres unmarked) [Example I-92, 3-Cyclopropyl-3-[(2-cyclopropyl-5H-pyrrolo[2,3-b]pyrazine-7-carbonyl)-amino]-2,2-dimethyl-propionic acid]
0.0364 µM | CC[C@@](C)(O)[C@H](C)NC(=O)c1c[nH]c2ncc(C3CC3)nc12 [Example I-34, 2-Cyclopropyl-5H-pyrrolo[2,3-b]pyrazine-7-carboxylic acid ((1S,2R)-2-hydroxy-1,2-dimethyl-butyl)-amide]
0.00661 µM | CCn1cc(-c2cnc3[nH]cc(C(=O)N[C@H](C)C(C)(C)O)c3n2)cn1 [Example I-99, 2-(1-Ethyl-1H-pyrazol-4-yl)-5H-pyrrolo[2,3-b]pyrazine-7-carboxylic acid ((R)-2-hydroxy-1,2-dimethyl-propyl)-amide]
1.1 µM | CCNC(=O)c1c[nH]c2ncc(Oc3ccccc3Cl)nc12 [Example I-265, 2-(2-Chloro-phenoxy)-5H-pyrrolo[2,3-b]pyrazine-7-carboxylic acid ethylamide]
0.00046 µM | Cc1ccccc1CNC(=O)c1ccc(-c2cnc3[nH]cc(C(=O)N[C@@H](C)C(C)(C)C)c3n2)s1 [Example I-187, 2-[5-(2-Methyl-benzylcarbamoyl)-thiophen-2-yl]-5H-pyrrolo[2,3-b]pyrazine-7-carboxylic acid ((S)-1,2,2-trimethyl-propyl)-amide]
0.0196 µM | COCC(C)NC(=O)c1c[nH]c2ncc(C3CC3)nc12 (centres unmarked) [Example I-9, 2-Cyclopropyl-5H-pyrrolo[2,3-b]pyrazine-7-carboxylic acid (2-methoxy-1-methyl-ethyl)-amide]
0.00047 µM | CON(C)C(=O)c1ccc(-c2cnc3[nH]cc(C(=O)N[C@@H](C)C(C)(C)C)c3n2)s1 [Example I-196, 2-[5-(Methoxy-methyl-carbamoyl)-thiophen-2-yl]-5H-pyrrolo[2,3-b]pyrazine-7-carboxylic acid ((S)-1,2,2-trimethyl-propyl)-amide]
0.0343 µM | CC(C)(CO)CNC(=O)c1c[nH]c2ncc(N3CCCC3)nc12 [Example I-10, 2-Pyrrolidin-1-yl-5H-pyrrolo[2,3-b]pyrazine-7-carboxylic acid (3-hydroxy-2,2-dimethyl-propyl)-amide]
0.143 µM | CC(C)NC(=O)c1c[nH]c2ncc(Oc3ccc4c(c3)[C@H](NC(N)=O)CC4)nc12 [Example I-299, 2-((R)-3-Ureido-indan-5-yloxy)-5H-pyrrolo[2,3-b]pyrazine-7-carboxylic acid isopropylamide]
0.217 µM | C[C@@H](CO)NC(=O)c1c[nH]c2ncc(C3CC3)nc12 [Example I-57, 2-Cyclopropyl-5H-pyrrolo[2,3-b]pyrazine-7-carboxylic acid ((S)-2-hydroxy-1-methyl-ethyl)-amide]
0.18 µM | CC(C)[C@H](NC(=O)c1c[nH]c2ncc(C3CC3)nc12)C(C)(C)O [Example I-24, 2-Cyclopropyl-5H-pyrrolo[2,3-b]pyrazine-7-carboxylic acid ((S)-2-hydroxy-1-isopropyl-2-methyl-propyl)-amide]
0.0589 µM | COCC(C)(C)CNC(=O)c1c[nH]c2ncc(C3CC3)nc12 [Example I-59, 2-Cyclopropyl-5H-pyrrolo[2,3-b]pyrazine-7-carboxylic acid (3-methoxy-2,2-dimethyl-propyl)-amide]
0.0034 µM | C[C@H](NC(=O)c1c[nH]c2ncc(C3CC3)nc12)C(C)(C)CS(C)(=O)=O [Example I-144, 2-Cyclopropyl-5H-pyrrolo[2,3-b]pyrazine-7-carboxylic acid ((S)-3-methanesulfonyl-1,2,2-trimethyl-propyl)-amide]
0.112 µM | C[C@H](CO)NC(=O)c1c[nH]c2ncc(C3CC3)nc12 [Example I-41, 2-Cyclopropyl-5H-pyrrolo[2,3-b]pyrazine-7-carboxylic acid ((R)-2-hydroxy-1-methyl-ethyl)-amide]
0.00014 µM | C[C@H](NC(=O)c1c[nH]c2ncc(-c3ccc(C(=O)NCC#N)s3)nc12)C(C)(C)C [Example I-172, 2-[5-(Cyanomethyl-carbamoyl)-thiophen-2-yl]-5H-pyrrolo[2,3-b]pyrazine-7-carboxylic acid ((S)-1,2,2-trimethyl-propyl)-amide]
3.3 µM | C[C@@H](NC(=O)c1c[nH]c2ncc(C#N)nc12)C(C)(C)O [Example I-115, 2-Cyano-5H-pyrrolo[2,3-b]pyrazine-7-carboxylic acid ((R)-2-hydroxy-1,2-dimethyl-propyl)-amide]
